Entries after “also recorded” stand apart in the source; their conditions may differ. Like-named read-outs stand apart in the source and are kept apart here.
Legend:
[1] = molecular target: T1, TbMetRS (Trypanosoma brucei brucei, UniProt Q38C91); experiment: Thermal melt of TbMetRS with combinations of ligands (Chem 1433, ATP, AMPPCP, Mg2+); type: binding; settings: for change in Tm of TbMetRS in the presence of the nucleotide and Mg2+: compared to TbMetRS only, no inhibitor
T1 construct: hexa-histidine tag (3C protease site) (N, cleaved yes); made in house; host or cells: E. coli
T1 sequence (Q38C91 1-773): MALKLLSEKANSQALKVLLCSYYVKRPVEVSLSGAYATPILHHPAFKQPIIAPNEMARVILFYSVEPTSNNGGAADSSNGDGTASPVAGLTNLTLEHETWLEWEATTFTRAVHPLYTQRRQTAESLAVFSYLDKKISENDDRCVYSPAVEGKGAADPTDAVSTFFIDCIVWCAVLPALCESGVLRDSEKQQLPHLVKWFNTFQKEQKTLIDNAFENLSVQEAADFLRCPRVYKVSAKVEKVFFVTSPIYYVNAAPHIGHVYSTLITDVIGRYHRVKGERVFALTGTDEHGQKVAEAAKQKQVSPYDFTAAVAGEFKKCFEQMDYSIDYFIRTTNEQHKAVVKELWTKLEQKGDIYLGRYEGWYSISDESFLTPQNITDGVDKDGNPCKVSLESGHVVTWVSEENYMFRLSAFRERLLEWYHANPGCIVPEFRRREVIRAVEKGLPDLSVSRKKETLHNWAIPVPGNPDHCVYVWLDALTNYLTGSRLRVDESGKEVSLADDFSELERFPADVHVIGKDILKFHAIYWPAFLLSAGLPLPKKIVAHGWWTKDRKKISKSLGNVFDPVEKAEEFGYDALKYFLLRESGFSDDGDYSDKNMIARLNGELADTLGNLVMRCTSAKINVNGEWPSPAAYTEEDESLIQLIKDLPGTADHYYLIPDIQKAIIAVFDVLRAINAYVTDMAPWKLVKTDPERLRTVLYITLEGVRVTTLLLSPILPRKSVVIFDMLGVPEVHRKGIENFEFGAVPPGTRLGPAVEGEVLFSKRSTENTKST
Experimental: Thermal melt experiments on TbMetRS in the presence of different combinations of ligands were performed to determine the nature of the interactions between Chem 1433 and ATP when they are bound to TbMetRS. A similar analysis has been used to establish synergism between an inhibitor of human ProRS, halofuginone, and ATP [25]. An increase in Tm of the TbMetRS•1433 complex upon adding ATP may be an indication of synergism between Chem 1433 and ATP in binding. […] Instead, the addition of ATP-Mg^2+ or AMPPCP-Mg^2+ to the complex of the TbMetRS•Chem 1433 complex result in increase of Tm by an average of 1.6°C (n = 4, P<0.02) and 1.2°C (n = 4, P<0.05), respectively, compared to the Tm of TbMetRS•Chem 1433 alone (Figure S4).
(§1) Supplementary file pntd.0002775.s004.pdf: Figure S4 Thermal melting curves of Tb MetRS in the presence of different ligands. TbMetRS (0.1 mg/ml) is incubated in the presence of different ligands as indicated. The incubation temperature of the samples is increased from 20°C to 90°C and the fluorescence signal from the reporter dye (Sypro Orange) monitored. Melting temperatures (Tm) are calculated from the curves as the temperature where the first derivative value is maximal. The average Tm value of TbMetRS in the presence of Chem 1433, ATP and Mg^2+ (purple dash) is 1.6°C higher than the Tm of TbMetRS in the presence of Chem 1433 only (n = 4, P<0.02). The average Tm of TbMetRS in the presence of Chem 1433, AMPPCP and Mg^2+ (black dot) is 1.2°C higher than the Tm of TbMetRS in the presence of Chem 1433 only (n = 4, P<0.05). Changes in Tm of TbMetRS in the presence of ATP and Mg^2+ or AMPPCP and Mg^2+ compared to TbMetRS only are insignificant (P>0.3 and 0.8 respectively). (PDF) Click here for additional data file.
A typical thermal melting curves of TbMetRS in the presence of different ligands.
as §1, with “TbMetRS” for “Supplementary file pntd.0002775.s004.pdf: Figure S4 Thermal melting curves of Tb MetRS in the presence of different ligands. TbMetRS”, “Mg2+” for “Mg^2+”, “P < 0.02).” for “P<0.02).”, “P < 0.05).” for “P<0.05).”, “(P > 0.3” for “(P>0.3”, “respectively).” for “respectively). (PDF) Click here for additional data file.”
(1 picture or pasted object on this page, not shown here)

[2] = molecular target: T2, T. brucei methionyl-tRNA synthetase (TbMetRS) (Trypanosoma brucei brucei, UniProt Q38C91); design: method as in PMID 22720744; settings: previously reported ABI, used for comparison; read-out: IC50 of the ABI Chem 1312 against TbMetRS; cited from earlier work
T2 construct: hexa-histidine tag (3C protease site) (N, cleaved yes); made in house; host or cells: E. coli
T2 sequence (Q38C91 1-773): T1 sequence (Q38C91 1-773)

[3] = design: method as in PMID 22720744; settings: cited from earlier work
[4] = molecular target: T2, T. brucei methionyl-tRNA synthetase (TbMetRS); experiment: T. brucei methionyl-tRNA synthetase aminoacylation assay; type: biochemical; settings: for IC50: read-out: IC50 (aminoacylation activity of purified TbMetRS)
Experimental: Compound IC50s were determined in the T. brucei methionyl-tRNA synthetase aminoacylation assay as previously described, [14] except 10 U/mL of pyrophosphatase was used per reaction.

[5] = system: T. brucei brucei (bloodstream form strain 427); experiment: T. brucei growth inhibition assay; type: cell-based; settings: Trypanosoma brucei, read-out: EC50 (growth of T. brucei in cell culture)
Excerpt: T. brucei brucei (bloodstream form strain 427 from K. Stuart, Seattle BioMed, Seattle, WA) were used for EC50 measurements as previously described, [14].

[6] = system: MDR-1 MDCKII; settings: cited from earlier work
[7] = system: T. brucei infection; design: method as in PMID 22720744; settings: administered orally; cited from earlier work
[8] = system: Staphylococcus aureus MetRS; design: method as in PMID 19015366; settings: physiological ATP 2500 µM versus 25 µM; cited from earlier work

Structure (SMILES)	IC50 [4] [µM]	EC50 [5] [µM]	further results
Nc1ncnc2c1ncn2C1OC(COP(=O)(O)OP(=O)(O)CP(=O)(O)O)C(O)C1O (stereo not drawn) [AMPPCP, β,γ-methyleneadenosine 5′-triphosphate]	–	–	change in Tm of TbMetRS in the presence of the nucleotide and Mg2+ [1]: does not change significantly; also recorded: insignificant
Nc1ncnc2c1ncn2[C@@H]1O[C@H](COP(=O)(O)OP(=O)(O)OP(=O)(O)O)[C@@H](O)[C@H]1O [ATP]	–	–	change in Tm of TbMetRS in the presence of the nucleotide and Mg2+ [1]: does not change significantly; also recorded: insignificant
Oc1cc(NCCCNCc2cc(Cl)cc(Cl)c2)nc2ccccc12 [Chem 1312]	–	–	IC50 [2]: 0.008 µM
O=C(NCCCNCc1cc(Cl)cc(Cl)c1)Nc1ccccc1 [Chem 1356]	0.057	0.357	entry into the central nervous system [3]: enter the central nervous system; oral bioavailability [3]: reasonable oral bioavailability; membrane permeability [6]: excellent membrane permeability; activity against the parasite in a mouse model [7]: suppressive activity
O=C(NCCCNCc1cc(Cl)cc(Cl)c1)Nc1ccccc1O [Chem 1392]	–	0.21	–
COc1cc(Cl)cc(CNCCCNC(=O)Nc2ccccc2)c1 [Chem 1415]	0.045	0.267	–
O=C(NCCCNCc1cc(Cl)cc(Cl)c1)Nc1ccsc1 [Chem 1433]	0.028	0.19	entry into the central nervous system [3]: enter the central nervous system; oral bioavailability [3]: reasonable oral bioavailability; fold less favorable IC50 than Chem 1312 ([4]; Chem 1433 (UBI) versus Chem 1312 (ABI)): ~3.5 fold; activity against the parasite in a mouse model [7]: moderate activity; also recorded: suppressive activity; increase of Tm on addition of ATP-Mg2+ to the TbMetRS•Chem 1433 complex ([1]; compared to Tm of TbMetRS•Chem 1433 alone, n = 4, P<0.02, TbMetRS 0.1 mg/ml): 1.6 °C; increase of Tm on addition of AMPPCP-Mg2+ to the TbMetRS•Chem 1433 complex ([1]; compared to Tm of TbMetRS•Chem 1433 alone, n = 4, P<0.05, TbMetRS 0.1 mg/ml): 1.2 °C
COc1cc(Cl)cc(CNCCCNC(=O)Nc2ccsc2)c1 [Chem 1444]	0.019	0.15	–
C=C(F)c1sc(CNCCCNc2cc(O)c3ccccc3n2)c(C)c1Br [REP8839]	–	–	fold lower IC50 at 2500 µM ATP than at 25 µM ATP [8]: 30- to 50 fold

Second part, led by results:

IC50 [4] [µM]	EC50 [5] [µM]	Structure (SMILES)	further results
–	0.17	O=C(NCCCNCc1cc(Cl)cc(Cl)c1)Nc1cccc(O)c1 [Chem 1387]	–
> 10	9.55	CCOc1c(I)cc(Cl)cc1CNCCCNC(=O)Nc1ccsc1 [Chem 1469]	–
0.198	5.26	C=CCc1cc(Cl)cc(CNCCCNC(=O)Nc2ccsc2)c1O [Chem 1472]	–
0.316	3.84	O=C(NCCCNCc1cc(Cl)cc(I)c1O)Nc1ccsc1 [Chem 1473]	–
1.23	1.16	C=CCOc1c(CC=C)cc(Cl)cc1CNCCCNC(=O)Nc1ccsc1 [Chem 1475]	–
1.68	1.12	C=CCc1cc(Cl)cc(CNCCCNC(=O)Nc2ccsc2)c1OCc1ccccc1 [Chem 1476]	–
0.096	1.06	C#Cc1cccc(CNCCCNC(=O)Nc2ccsc2)c1 [Chem 1478]	–
0.324	2.79	O=C(NCCCNCc1cc(Cl)sc1Cl)Nc1ccsc1 [Chem 1509]	–
1.36	9.41	Cc1sc2ccccc2c1CNCCCNC(=O)Nc1ccsc1 [Chem 1540]	–
